We go through nine compounds from PMC12380226, “Novel strategies for inhibiting SufA protease: the role of ester substituents and biological properties” (Future Medicinal Chemistry, 2025).

The structures appear in SMILES notation. Read-outs that look alike come from different tables or passages of the source.

Data set [1] has as its system SufA. On the set-up: method as in PMID 24859537. The note with it: cited from earlier work.
Data set [2] deals with BALB/3T3. On the set-up: method as in PMID 24859537. The note with it: BALB/3T3 cell line; cited from earlier work.
Data set [3] deals with SufA. The arrangement: method as in PMID 24859537. The following applies: cited from earlier work. The source holds these as a separate data set.
The subject of data set [4] is HLMEC. On the set-up: method as in PMID 24859537. The note with it: HLMEC cell line; cited from earlier work.
Data set [5] has as its system SplA protease. The arrangement: method as in PMID 24375505. The note with it: cited from earlier work.
Data set [6] relates to E. coli PCM 2561. Kind of data set: Antibacterial activity, growth reduction (OD600, 24 h). The format is cell-based. The following applies: Escherichia coli, PCM2561, MH broth. How it is done: (§1) The antibacterial properties of the inhibitors were assessed in Mueller-Hinton (MH) broth at 37°C for E. coli, S. marcescens, and S. aureus. For F. magna, the antibacterial properties of the inhibitors were tested in Todd Hewitt broth at 37°C under anaerobic conditions. An overnight culture of the tested bacteria was diluted 200-fold in fresh medium and incubated at 37°C until the OD600 reached 0.3. Subsequently, 100 µL of the inhibitor and antibiotic control (at concentrations ranging from 0 to 250 µg/mL) were added to 900 µL of bacterial culture, which had been previously diluted to an OD600 of less than 0.01. The resulting samples were incubated for 24 h at 37°C with shaking at 100 rpm. Then, 200 µL of each sample was transferred to a well plate, and the absorbance was measured at a wavelength of 600 nm using a microplate reader. To determine the antibacterial properties of the inhibitors, the data were normalized against a control culture (without inhibitor or antibiotics). The IC50 values were calculated using GraphPad Prism through nonlinear regression, employing the following equation model: Y=YBottom+(YTop−YBottom)/(1+10^∧((LogIC50−X)∗(−1.0))),
(§2) where YBottom and YTop represent the plateaued units of the Y-axis. The IC50 value represents the concentration that produces a half-maximal response between YBottom and YTop, thus measuring the potency of a compound in inhibiting bacterial viability and indicating a 50% reduction in bacterial growth. The effect of gentamicin on bacterial growth reduction, including its IC50 values, can be found in the Supplementary Material (Supplementary Microbiology Part S1, Figures S12)

In data set [7] the test system is S. aureus PCM 2602. Described as above. The data set is classed as cell-based. The following applies: Staphylococcus aureus, PCM2602, MH broth. How it is done: as §1, §2
In data set [8] the test system is F. magna PCM 2822. Described as above. The format is cell-based. The following applies: Finegoldia magna, read-out: IC50 growth reduction. The method, then:
as §1, §2

Data set [9] concerns S. marcescens PCM 549. The description is as above. The format is cell-based. The following applies: Serratia marcescens, read-out: IC50 growth reduction. How it is done: as §1, §2
Data set [10] has as its system SufA protease. The data set can be described thus: Inhibition of SufA-mediated degradation of human antimicrobial peptide LL-37 (PAGE). The format is biochemical, Finegoldia magna. The note with it: SufA 25 µg/mL, inhibitor 1.3 mM, pre-incubation 60 min 37°C. The method, then: (§3) The SufA protease was incubated with the specific SufA inhibitor for 60 min at 37°C, maintaining a constant DMSO concentration of 1%. The reference sample contained an appropriate amount of DMSO instead of the inhibitor. After incubation, fibrinogen and LL-37 proteins were added to each sample of enzyme (25 µg/mL) or enzyme with inhibitor (25 µg/mL, 1.3 mM). Samples were analyzed by PAGE using the standard Laemmli protocol for fibrinogen and the procedure developed by Judd for the LL-37 peptide. Raw gel results of the inhibition of SufA-induced degradation of human fibrinogen and LL-37 by tested inhibitors after SDS-PAGE electrophoresis analysis are presented in Supplementary Biochemical Part S1-S2 and Figures S9–S11.

For data set [11], the system named is SufA protease. Kind of data set: Inhibition of SufA-mediated degradation of human fibrinogen (SDS-PAGE). The data set is classed as biochemical, Finegoldia magna. The following applies: SufA 25 µg/mL, inhibitor 1.3 mM, pre-incubation 60 min 37°C, SDS-PAGE reducing. The method, then:
as §3

Data set [12] relates to SufA protease. Kind of data set: SufA inhibition studies (fluorogenic substrate ABZ-Ile-Ser-Lys-ANB, progress curve method). The data set is classed as biochemical, Finegoldia magna. The method, then:
The assays were performed at 37°C with an excitation wavelength of 320 nm for ABZ and an emission wavelength of 410 nm using 96-well microtiter plates (COSTAR, Corning Inc., Gdańsk, Poland) in 0.1 M Tris-HCl (pH 8.0) with 0.01 M KCl. The concentrations of substrate (ABZ-Ile-Ser-Lys-ANB) and SufA protease were 25 µM and 4 µg/mL, respectively. The SufA protease was incubated for 10 min with the tested compound, dissolved in DMSO (inhibitor final concentration ranging from 0 to 300 µM), and then the measurement was taken for 10 min. Each assay was performed in at least duplicate. The inhibitory activity was measured, and the percentage of inhibition was calculated with the equation: % inhibition = RFUtest / RFU− ∗ 100%,
where RFU represents the relative fluorescence units, test refers to the signal from reactions containing an inhibitor, and (-) represents the signal from the control reactions (without an inhibitor). The inhibitory effects of the synthesized compounds were evaluated by means of the progress curve method.
where [P] is the product concentration at time t, vi is the initial velocity, and vs is the steady state velocity. […]

In data set [13] the test system is ctDNA. Kind of data set: DNA intercalation by circular dichroism spectroscopy. The data set is classed as binding, ox. The note with it: inhibitor 100 µM, ctDNA 50 µM, 1% DMSO. The method, then: The measurement parameters were set as follows: the wavelength range was set from 220 nm to 320 nm, step – at every 0.2 nm, and 4 accumulations. Measurements were performed in a Justcode M cuvette with an optical path of 1 mm. 200 μL of the analyzed solution was introduced into the cuvette each time. The apparatus was zeroed using phosphate buffer with the following composition: 150 mM NaCl, 20 mM PB, 1 mM EDTA. Afterward, the samples (maintaining a constant DMSO concentration of 1%) of ctDNA (50 µM), inhibitor (100 µM), and inhibitor (100 µM) with ctDNA (50 µM) were prepared. First, a sample of the ctDNA solution was measured with a CD spectrometer to check the graph for pure DNA. Then, a sample of the inhibitor solution was measured, against which the apparatus was blanked because the inhibitor molecule itself could produce a CD effect, potentially falsifying the results. At the end, a sample of the actual solution containing the inhibitor and ctDNA was measured.
(In general: Circular dichroism is widely used to follow secondary structure.)

Data set [14] relates to E. coli. The note with it: read-out: literature IC50; cited from earlier work.
The test system of data set [15] is S. aureus. The note with it: read-out: literature IC50; cited from earlier work.

Turning to `N=C(N)c1ccc2cc(C(NC(=O)OCc3ccccc3)P(=O)(Oc3ccccc3)Oc3ccccc3)ccc2c1` (stereo not drawn) [Cbz-6-AmNpth^P(OC6H5)2], the k2/Ki in data set [1] is 10,800 M^− 1 s^− 1. In addition, the Cytotoxicity result in [2] and in [4] was “no significant cytotoxicity” in each case. For the same compound, the “Inhibition of degradation of fibrinogen” value in data set [3] was “completely inhibited the degradation of fibrinogen”.

Turning to `CC(C)CC(NC(=O)C1CCCN1C(=O)C(NC(=O)OCc1ccccc1)C(C)C)P(=O)(Oc1ccc(S(C)(=O)=O)cc1)Oc1ccc(S(C)(=O)=O)cc1` (stereo not drawn) [Cbz-Val-Pro-Leu^P(OC6H4-4-SOOCH3)2], the k2/Ki in data set [5] was more than 8000 M⁻¹ s⁻¹.

Turning to `CC(C)C(NC(=O)OCc1ccccc1)C(=O)N1CCCC1C(=O)NC(Cc1ccccc1)P(=O)(Oc1ccc(S(C)(=O)=O)cc1)Oc1ccc(S(C)(=O)=O)cc1` (stereo not drawn) [Cbz-Val-Pro-Phe^P(OC6H4-4-SOOCH3)2], in data set [5], the k2/Ki was more than 8000 M⁻¹ s⁻¹.

As usually defined, the IC50 is the concentration that inhibits the measured activity by half. As for `CSc1ccc(OP(=O)(Oc2ccc(SC)cc2)C(NC(=O)OCc2ccccc2)c2ccc3cc(C(=N)N)ccc3c2)cc1` (stereo not drawn) [Compound 8a, Cbz-6-AmNphth^P(OC6H4-4-SCH3)2], the IC50 in [6] was 28200 nM; in data set [7], 2650 nM; in data set [8] (PCM2822, Todd Hewitt broth, anaerobic, 24 h) it was 20 nM; in data set [9] (PCM549, 24 h), 20 nM. Also, the “Inhibition of SufA-induced degradation of LL-37” value in data set [10] is given as “inhibition of LL-37 cleavage”. Moreover, in [11], the “Inhibition of SufA-induced degradation of human fibrinogen” value (from here on “Inhibition … of human fibrinogen”) is on record as “completely prevented fibrinogen degradation”. The k2/Ki in data set [12] (second-order rate constant, 37°C, pH 8.0) turned out to be 1500 M⁻¹ s⁻¹. Also, the “DNA intercalation (change of CD spectrum of ctDNA)” value in data set [13] is recorded as “does not induce DNA intercalation”.

In the case of `COc1ccc(OP(=O)(Oc2ccc(OC)cc2)C(NC(=O)OCc2ccccc2)c2ccc3cc(C(=N)N)ccc3c2)cc1` (stereo not drawn) [Compound 8b, Cbz-6-AmNphth^P(OC6H4-4-OCH3)2], the IC50 in [6] was more than 150000 nM; in data set [7], 19200 nM; in data set [8] (PCM2822, 24 h), 40 nM; in data set [9] (PCM549, 24 h) it was 480 nM. The “Inhibition … of human fibrinogen” value in data set [11] is reported as “weaker inhibitory effect on fibrinogen degradation”.

With `COC(=O)c1ccc(OP(=O)(Oc2ccc(C(=O)OC)cc2)C(NC(=O)OCc2ccccc2)c2ccc3cc(C(=N)N)ccc3c2)cc1` (stereo not drawn) [Compound 8c, Cbz-6-AmNphth^P(OC6H4-4-COOCH3)2], the IC50 in data set [6] is 60900 nM; in data set [7] it was more than 150000 nM; in data set [8] (PCM2822, 24 h), 6980 nM; in data set [9] (PCM549, 24 h) it was less than 10 nM. The “Inhibition … of human fibrinogen” value in data set [11] was “weaker inhibitory effect on fibrinogen degradation”. Also, the “% SufA inhibition” value in [12] (cmpd. conc. 50 μM) was less than 50%.

For the compound `CC1(C)S[C@@H]2[C@H](NC(=O)[C@H](N)c3ccccc3)C(=O)N2[C@H]1C(=O)O` [ampicillin], the IC50 in data set [14] was 10100 nM; in data set [15], 180 nM.

With `O=C(N[C@H](CO)[C@H](O)c1ccc([N+](=O)[O-])cc1)C(Cl)Cl` [chloramphenicol], the IC50 in [14] is 373000 nM; in data set [15], 1590 nM.

Turning to `CNC(C)C1CCC(N)C(OC2C(N)CC(N)C(OC3OCC(C)(O)C(NC)C3O)C2O)O1` (stereo not drawn) [gentamicin, reference compound], the half-inhibitory concentration (IC50) in [9] (PCM549, MH broth, 24 h) was 251 nM.
